This is an account of results in patent US8633165B2, “Neuroprotective effects of 2DG in traumatic brain injury” (Wisconsin Alumni Research Foundation, priority 2010, dated 2014).

Entries after “also recorded” stand apart in the source; their conditions may differ.

The subject of series [1] is rats with TBI induced by CCI in fronto-parietal and temporo-parietal cortex. The series is described as follows: Lateral ventricle volume by T2W MRI after TBI induced by controlled cortical impact (CCI). The format is in vivo, rat. To be noted: for proportional change in lateral ventricle volume from 1 week to 1 month following injury: in vivo T2W MRI, 2DG 40 mg/kg IP 30 min prior to CCI, then 250 mg/kg immediately after and twice daily for 2 weeks, change significantly greater for saline than 2DG (p=0.015). From the text: “Fast” rats and “slow” rats from the 9th-11th generations selected by these procedures were subjected to TBI induced by the method of controlled cortical impact (CCI) using published protocols (see Dixon et al., 1991, J. Neuro. Meth. 39: 253-262). During the induction of TBI by CCI, the rats were deeply anesthetized with isoflurane (3% for induction, 1.5-2.5% for maintenance) and were placed in a stereotaxic frame. After craniotomy with the dura intact, anesthesia was reduced to 1% isoflurane for a 5-min equilibration period and CCI was performed over temporo-parietal cortex (−1 to −6 mm from bregma, below lateral skull ridge) and fronto-parietal cortex (+5.3 to −0.3 mm from bregma, below lateral skull ridge), which are more and less likely, respectively, to damage the hippocampus and amygdala. Brain lesions were induced by a digitally-controlled contusion device using a pneumatically driven impactor with a sterilized rounded stainless steel tip (3-4 mm in diameter) which compresses the cortex with a specified velocity, depth, and dwell time varied to induce a range of injury severity (ranging from mild, with parameters of 4.0 m/s, 1.0 mm deformation, dwell time 50 mS, to severe, at 6.0 m/s, 2.5 mm deformation, dwell time 50 mS). […]
The effects of 2DG on TBI induced by CCI in fronto-parietal and temporo-parietal cortex were evaluated in “fast” kindling-susceptible and “slow” kindling-resistant rats. […]
(§1) The effects of 2DG treatment on the location, severity, and progression of induced cortical and subcortical damage were assessed in serial in vivo magnetic resonance imaging (MRI) and diffusion tensor imaging (DTI) studies at 1 week, 1 month, and 6 months after TBI as well as high-resolution ex vivo DTI of brains harvested from the same rats following the final in vivo imaging session. DTI is an advanced MRI modality that offers a unique view of the brain in its ability to report quantitative microstructural information at the whole-brain and in vivo scales. […]

Series [2] concerns rats. To be noted: rat, in vivo, 250 mg/kg. How it is done: For example, dosage amount and interval of 2-DG administration can be adjusted individually to reduce incidence, frequency, duration or intensity of deleterious sequellae of TBI, particularly PTE, using doses of 40 mg/kg or less to higher as tolerated to reduce seizure frequency and minimize toxicity. […] A practitioner skilled in the art can adjust dosage in the range of 2-250 mg/kg and the timing of administration to produce prolonged neuroprotectant effects. Efficacious dosage amounts can be adjusted in children and adults, for establishing effective dosage levels.

The subject of series [3] is hippocampal brain slices. To be noted: evoked by 7.5 mM [K+]o, 4-amino-pyridine, bicuculline, DHPG; Stafstrom et al., 2009; cited from earlier work.
Series [4] concerns rats. To be noted: perforant path and olfactory bulb stimulation in rats; Garriga-Canut et al., 2006; Stafstrom et al., 2009; cited from earlier work.
Series [5] concerns rats with TBI induced by CCI in fronto-parietal and temporo-parietal cortex. Nature of the series: Hippocampal DTI measures (MD, FA laterality index) after TBI induced by CCI. To be noted: for in vivo hippocampal FA laterality index (LRI): fast and slow kindling strains, strain by treatment interaction p=0.088, saline vs 2DG at 1 month p=0.08; for change in in vivo ipsilateral hippocampal MD between 1 week and 6 months: paired t-test: saline p=0.0026, 2DG p=0.289, treatment by time interaction p=0.064. The format is in vivo, rat. From the text:
(§2) “Fast” rats and “slow” rats from the 9th-11th generations selected by these procedures were subjected to TBI induced by the method of controlled cortical impact (CCI) using published protocols (see Dixon et al., 1991, J. Neuro. Meth. 39: 253-262). During the induction of TBI by CCI, the rats were deeply anesthetized with isoflurane (3% for induction, 1.5-2.5% for maintenance) and were placed in a stereotaxic frame. After craniotomy with the dura intact, anesthesia was reduced to 1% isoflurane for a 5-min equilibration period and CCI was performed over temporo-parietal cortex (−1 to −6 mm from bregma, below lateral skull ridge) and fronto-parietal cortex (+5.3 to −0.3 mm from bregma, below lateral skull ridge), which are more and less likely, respectively, to damage the hippocampus and amygdala. Brain lesions were induced by a digitally-controlled contusion device using a pneumatically driven impactor with a sterilized rounded stainless steel tip (3-4 mm in diameter) which compresses the cortex with a specified velocity, depth, and dwell time varied to induce a range of injury severity (ranging from mild, with parameters of 4.0 m/s, 1.0 mm deformation, dwell time 50 mS, to severe, at 6.0 m/s, 2.5 mm deformation, dwell time 50 mS). Anesthesia was then administered at maintenance levels (1.5-2.5%), the craniotomy and wound were closed, and the rats were allowed to recover. The location, severity, and progression of induced cortical and subcortical damage was examined by serial in vivo magnetic resonance imaging (MRI) and diffusion tensor imaging (DTI) techniques at 1 week, 1 month, and 6 months after TBI.
(§3) The effects of 2DG on TBI induced by CCI in fronto-parietal and temporo-parietal cortex were evaluated in “fast” kindling-susceptible and “slow” kindling-resistant rats. Half of the rats from these strains received 2DG at 40 mg/kg IP 30 min prior to CCI, and then 250 mg/kg immediately after and twice daily for 2 weeks. These rats were compared to control groups with TBI induced by CCI that were treated only with an equivalent volume of saline. Both treatment groups were also compared to sham-injured rats that underwent all aspects of the experimental manipulations except for CCI.
The effects of 2DG treatment on the location, severity, and progression of induced cortical and subcortical damage were assessed in serial in vivo magnetic resonance imaging (MRI) and diffusion tensor imaging (DTI) studies at 1 week, 1 month, and 6 months after TBI as well as high-resolution ex vivo DTI of brains harvested from the same rats following the final in vivo imaging session. DTI is an advanced MRI modality that offers a unique view of the brain in its ability to report quantitative microstructural information at the whole-brain and in vivo scales. The most commonly reported DTI indices are fractional anisotropy (FA), which characterizes the “directionalness” of tissue structure (e.g. high in white matter and low in grey matter and CSF) and mean diffusion (MD), which characterizes water status (“free” or “restricted”) due to cellular barriers (e.g. high in CSF and low in tissue). Both indices are known to be sensitive to damage and other structural changes such as tissue/circuit reorganization. This makes DTI an attractive modality to investigate disorders with known or hypothesized structural abnormalities such as TBI.
MRI scanning was performed using a Varian 4.7 T scanner and a quadrature birdcage volume coil was used to transmit and receive the MRI signal. […]

The conditions of series [6]: Mattson, 1999; cited from earlier work.
Series [7] concerns rats with TBI induced by CCI in fronto-parietal and temporo-parietal cortex. The series is described as follows: Corpus callosum and fornix DTI (FA) after TBI induced by CCI. It counts as in vivo, rat. To be noted: for ex vivo corpus callosum (CC) FA: CCI location by treatment interaction p=0.038, fronto-parietal CCI.
Excerpt: as §2, §3, §1

Series [8] deals with ischemic rat. To be noted: Combs et al., 1986; cited from earlier work.
Series [9] concerns mice. To be noted: Stafstrom et al., 2009; cited from earlier work.

For `O=CC[C@@H](O)[C@H](O)[C@H](O)CO` [2DG, 2-deoxy-D-glucose], in series [1] (brains harvested after 6 months, ANOVA treatment main effect p=0.16, strain by treatment interaction p=0.06, greater volumes for saline, most evident in slow-kindled strain), the “ex vivo lateral ventricle volumes” value is reported as “protection from gross tissue loss”. Further, the “proportional change in lateral ventricle volume from 1 week to 1 month following injury” value in [1] is listed as “reduced progressive volumetric changes”; in [1] (listed as 2-DG), “p<0.05 for the saline but not the 2-DG treated group”. Also, the tolerability result in series [2] is on record as “well tolerated”. Further, in [3], the “epileptic discharges evoked in hippocampal brain slices” value is given as “acute in vitro reduction of epileptic discharges”. Further, in series [4], the “slowing of progression of kindled seizures” value is 2 fold. The “ex vivo ipsilateral hippocampal MD” value in series [5] (ANOVA main effect for treatment p=0.002, compared with saline and sham-injured controls) is reported as “restored MD measurements to the range of normal values observed in controls”. The “in vivo hippocampal FA laterality index (LRI)” value is reported as “appeared to abolish the pattern of increased LRI over 1 week to 1 month in both strains” in series [5] and “reduces FA LRI in both strains” in series [5] (listed as 2-DG). For the same compound, the “change in in vivo ipsilateral hippocampal MD between 1 week and 6 months” value in series [5] is “not for the 2DG treated groups”; in series [5] (listed as 2-DG) it was “no significant change”. Also, in series [6], the “brain damage initiated by seizures induced by kainic acid” value is “reduced brain damage”. Further, the “ex vivo corpus callosum (CC) FA” value in [7] is “FA was highest for fronto-parietal, 2DG treated rats”; in series [7] (listed as 2-DG), “reduced in all groups except for 2-DG treated rats with fronto-parietal CCI”. The “ex vivo fornix FA” value in series [7] (fronto-parietal CCI vs temporo-parietal CCI, 2-DG vs saline) was “reduced in all groups except for 2-DG treated rats with fronto-parietal CCI”. In [7] (paired t-test: 2DG p=0.0099, saline p=0.8396, treatment by time interaction p=0.073), the “in vivo anterior corpus callosum (aCC) FA, change from one week to six months” value is given as “increase in aCC FA by 6 months post-CCI that nearly reaches control values; also recorded: significant change from one week to six months”. Moreover, in series [8], the “brain damage initiated by ischemia” value is given as “reduced brain damage”. Moreover, the “anticonvulsant activity against seizures evoked by 6 Hz and audiogenic stimulation” value in series [9] was “acute in vivo anticonvulsant activity”.
